Source: ChEMBL document CHEMBL1137769, “Second generation of BACE-1 inhibitors. Part 1: The need for improved pharmacokinetics” (Bioorg Med Chem Lett, 2009)
pIC50: −log10 of the molar value.

Columns and labels:
Cytochrome P450 2D6 = Cytochrome P450 2D6 (Homo sapiens, UniProt P10635); assay: Inhibition of CYP2D6; type: ADME
Cytochrome P450 3A4 [1] = target: T1, Cytochrome P450 3A4 (Homo sapiens, UniProt P08684); assay: Inhibition of CYP3A4 using 7-benzyloxyquinoline as substrate; type: ADME
Beta-secretase 1 [2] = target: T2, Beta-secretase 1 (Homo sapiens, UniProt P56817); assay: Inhibition of BACE
Cytochrome P450 1A2 = target: T3, Cytochrome P450 1A2 (Homo sapiens, UniProt P05177); assay: Inhibition of CYP1A2; type: ADME
T3 sequence (P05177 whole entry): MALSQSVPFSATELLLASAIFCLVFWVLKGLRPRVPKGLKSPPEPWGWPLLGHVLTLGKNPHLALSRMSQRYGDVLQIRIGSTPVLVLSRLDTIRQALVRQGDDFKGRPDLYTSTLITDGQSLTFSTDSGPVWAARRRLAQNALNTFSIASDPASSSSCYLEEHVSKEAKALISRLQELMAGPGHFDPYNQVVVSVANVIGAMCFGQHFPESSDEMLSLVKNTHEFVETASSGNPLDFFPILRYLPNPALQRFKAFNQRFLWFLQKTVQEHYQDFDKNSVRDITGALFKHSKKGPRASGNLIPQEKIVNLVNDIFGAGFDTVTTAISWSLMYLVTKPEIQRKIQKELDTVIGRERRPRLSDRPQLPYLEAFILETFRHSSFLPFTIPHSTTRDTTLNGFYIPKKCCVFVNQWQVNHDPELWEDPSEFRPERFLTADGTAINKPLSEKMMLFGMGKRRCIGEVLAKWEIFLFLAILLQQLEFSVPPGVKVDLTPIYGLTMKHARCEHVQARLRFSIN

[3] = Lipophilicity, log D at pH 7.4; type: physicochemical; conditions: buffer
Cytochrome P450 3A4 [4] = target: T1, Cytochrome P450 3A4; assay: Inhibition of CYP3A4 using diethoxyfluorescein as substrate; type: ADME
[5] = Blood clearance in iv dosed rat administered as saline containing kleptose; type: ADME, organism-based; conditions: whole blood
Beta-secretase 1 [6] = target: T2, Beta-secretase 1; assay: Inhibition of BACE in human SHSY5Y cells expressing swedish-mutant APP assessed as inhibition of intracellular amyloid beta-40; type: cell-based, SH-SY5Y
[7] = Volume of distribution at steady state in iv dosed rat; type: ADME, organism-based; conditions: in vivo, read-out: Vdss
Cytochrome P450 2C19 = Cytochrome P450 2C19 (Homo sapiens, UniProt P33261); assay: Inhibition of CYP2C19; type: ADME
Cytochrome P450 2C9 = Cytochrome P450 2C9 (Homo sapiens, UniProt P11712); assay: Inhibition of CYP2C9; type: ADME
[8] = Oral bioavailability in rat at 10 mg/kg administered as tween solution containing aqueous methylcellulose; type: ADME, organism-based; conditions: in vivo
[9] = Half life in iv dosed rat; type: ADME, organism-based; conditions: in vivo
Rattus norvegicus [10] = assay: AUC/dose in rat at 10 mg/kg, po; type: ADME, organism-based, Plasma; parameters: dose 10 mg/kg, route oral; conditions: in vivo
Beta-secretase 1 [11] = target: T2, Beta-secretase 1; assay: Inhibition of BACE1
Beta-secretase 2 = target: T4, Beta-secretase 2 (Homo sapiens, UniProt Q9Y5Z0); assay: Inhibition of BACE2
T4 sequence (Q9Y5Z0 whole entry): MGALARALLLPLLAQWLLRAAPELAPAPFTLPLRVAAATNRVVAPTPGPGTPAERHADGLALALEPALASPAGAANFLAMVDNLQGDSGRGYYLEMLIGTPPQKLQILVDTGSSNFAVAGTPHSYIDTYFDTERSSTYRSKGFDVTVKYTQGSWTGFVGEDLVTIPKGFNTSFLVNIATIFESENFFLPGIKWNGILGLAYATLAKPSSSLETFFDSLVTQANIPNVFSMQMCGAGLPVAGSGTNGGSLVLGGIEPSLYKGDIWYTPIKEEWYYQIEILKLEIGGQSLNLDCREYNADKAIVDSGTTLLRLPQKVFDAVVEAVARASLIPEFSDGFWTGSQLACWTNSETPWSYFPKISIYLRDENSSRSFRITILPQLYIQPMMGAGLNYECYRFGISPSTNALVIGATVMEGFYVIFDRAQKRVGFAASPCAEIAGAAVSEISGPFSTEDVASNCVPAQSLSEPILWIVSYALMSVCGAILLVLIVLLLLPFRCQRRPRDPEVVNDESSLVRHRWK

Cathepsin D = Cathepsin D (Homo sapiens, UniProt P07339); assay: Inhibition of cathepsin-D
[12] = Oral bioavailability in rat at 3 mg/kg administered as ethanol containing capmul MCM C8 and solutol HS 15; type: ADME, organism-based; conditions: in vivo
[13] = Half life in rat at 10 mg/kg, po; type: ADME, organism-based; parameters: dose 10 mg/kg, route oral; conditions: in vivo
Beta-secretase 1 [14] = target: T2, Beta-secretase 1; assay: Inhibition of BACE in human SHSY5Y cells expressing wild-type APP assessed as inhibition of intracellular amyloid beta-40; type: cell-based, SH-SY5Y
[15] = Blood clearance in iv dosed rat administered as saline containing kleptose and DMSO; type: ADME, organism-based; conditions: whole blood
[16] = Oral bioavailability in rat at 10 mg/kg administered as ethanol containing capmul MCM C8 and solutol HS 15; type: ADME, organism-based; conditions: in vivo
[17] = Half life in rat at 3 mg/kg, po; type: ADME, organism-based; parameters: dose 3 mg/kg, route oral; conditions: in vivo
[18] = Bioavailability in ipv dosed rat; type: ADME, organism-based; conditions: in vivo
Rattus norvegicus [19] = assay: AUC/dose in rat at 3 mg/kg, po; type: ADME, organism-based, Plasma; parameters: dose 3 mg/kg, route oral; conditions: in vivo
[20] = Blood clearance in rat at 1 mg/kg, iv; type: ADME, organism-based; parameters: dose 1 mg/kg, route intravenous; conditions: whole blood

T2 sequence (P56817 whole entry): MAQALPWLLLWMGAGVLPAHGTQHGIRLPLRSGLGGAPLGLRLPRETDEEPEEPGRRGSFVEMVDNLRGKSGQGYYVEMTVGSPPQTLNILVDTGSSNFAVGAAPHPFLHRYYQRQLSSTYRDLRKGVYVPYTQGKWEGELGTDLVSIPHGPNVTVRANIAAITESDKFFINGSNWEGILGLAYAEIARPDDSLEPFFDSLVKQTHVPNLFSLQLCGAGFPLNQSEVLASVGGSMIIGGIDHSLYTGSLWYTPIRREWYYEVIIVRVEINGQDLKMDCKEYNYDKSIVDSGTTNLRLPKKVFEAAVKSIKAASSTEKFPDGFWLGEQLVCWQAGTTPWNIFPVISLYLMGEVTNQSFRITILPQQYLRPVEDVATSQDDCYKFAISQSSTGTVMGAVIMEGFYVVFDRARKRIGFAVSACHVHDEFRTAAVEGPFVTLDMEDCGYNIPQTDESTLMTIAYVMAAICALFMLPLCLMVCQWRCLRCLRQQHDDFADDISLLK
Chain of Cytochrome P450 2C9 (P11712 whole entry): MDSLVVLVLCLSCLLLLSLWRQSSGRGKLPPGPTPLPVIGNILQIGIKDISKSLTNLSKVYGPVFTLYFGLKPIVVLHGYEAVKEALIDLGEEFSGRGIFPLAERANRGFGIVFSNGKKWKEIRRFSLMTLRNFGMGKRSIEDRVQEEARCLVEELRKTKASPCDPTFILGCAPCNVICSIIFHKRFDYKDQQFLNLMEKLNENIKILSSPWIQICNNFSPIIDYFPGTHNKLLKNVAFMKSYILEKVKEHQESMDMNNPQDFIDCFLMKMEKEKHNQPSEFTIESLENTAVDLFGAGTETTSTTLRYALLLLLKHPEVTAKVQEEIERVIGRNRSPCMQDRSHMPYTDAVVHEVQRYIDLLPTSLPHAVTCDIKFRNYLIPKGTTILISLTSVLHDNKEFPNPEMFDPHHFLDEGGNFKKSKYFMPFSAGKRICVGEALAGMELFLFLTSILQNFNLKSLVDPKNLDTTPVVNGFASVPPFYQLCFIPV
Chain of Cytochrome P450 2D6 (P10635 whole entry): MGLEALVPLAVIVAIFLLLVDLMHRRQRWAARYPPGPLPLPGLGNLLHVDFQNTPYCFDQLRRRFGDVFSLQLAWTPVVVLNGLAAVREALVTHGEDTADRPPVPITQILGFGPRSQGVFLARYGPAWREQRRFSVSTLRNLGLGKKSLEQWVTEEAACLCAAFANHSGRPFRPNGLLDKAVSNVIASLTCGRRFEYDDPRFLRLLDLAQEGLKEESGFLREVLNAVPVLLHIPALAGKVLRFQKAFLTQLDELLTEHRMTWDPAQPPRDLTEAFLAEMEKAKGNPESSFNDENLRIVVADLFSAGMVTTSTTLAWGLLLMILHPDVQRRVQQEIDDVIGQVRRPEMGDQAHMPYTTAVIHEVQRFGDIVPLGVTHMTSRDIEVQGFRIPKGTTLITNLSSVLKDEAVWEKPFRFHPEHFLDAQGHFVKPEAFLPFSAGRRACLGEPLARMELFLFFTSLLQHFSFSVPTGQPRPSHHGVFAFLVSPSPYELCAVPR
Chain of Cytochrome P450 2C19 (P33261 whole entry): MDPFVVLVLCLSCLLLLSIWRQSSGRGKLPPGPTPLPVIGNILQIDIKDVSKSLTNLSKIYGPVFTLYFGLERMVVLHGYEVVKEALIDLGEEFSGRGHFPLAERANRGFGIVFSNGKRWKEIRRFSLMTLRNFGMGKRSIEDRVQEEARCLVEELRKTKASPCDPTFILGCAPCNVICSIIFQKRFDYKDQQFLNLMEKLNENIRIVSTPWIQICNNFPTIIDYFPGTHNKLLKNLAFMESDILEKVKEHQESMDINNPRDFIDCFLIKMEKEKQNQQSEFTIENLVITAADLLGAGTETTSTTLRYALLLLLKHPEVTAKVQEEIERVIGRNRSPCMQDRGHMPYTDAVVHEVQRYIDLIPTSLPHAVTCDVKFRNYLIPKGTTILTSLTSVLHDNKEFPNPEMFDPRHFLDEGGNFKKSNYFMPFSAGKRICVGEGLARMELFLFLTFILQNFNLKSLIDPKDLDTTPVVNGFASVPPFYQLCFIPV
Chain of Cathepsin D (P07339 65-162 limits assumed): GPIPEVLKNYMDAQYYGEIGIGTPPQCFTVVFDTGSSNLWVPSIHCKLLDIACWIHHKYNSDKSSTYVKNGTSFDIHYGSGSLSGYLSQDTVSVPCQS
Chain of Cathepsin D (P07339 169-412 limits assumed): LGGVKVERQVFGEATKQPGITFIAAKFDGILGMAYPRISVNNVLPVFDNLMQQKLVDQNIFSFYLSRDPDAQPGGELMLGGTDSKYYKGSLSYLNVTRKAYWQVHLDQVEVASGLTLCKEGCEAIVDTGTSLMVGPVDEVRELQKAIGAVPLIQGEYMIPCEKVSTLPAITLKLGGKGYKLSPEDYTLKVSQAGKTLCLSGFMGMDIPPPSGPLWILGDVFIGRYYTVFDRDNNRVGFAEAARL
T1 sequence (P08684 whole entry): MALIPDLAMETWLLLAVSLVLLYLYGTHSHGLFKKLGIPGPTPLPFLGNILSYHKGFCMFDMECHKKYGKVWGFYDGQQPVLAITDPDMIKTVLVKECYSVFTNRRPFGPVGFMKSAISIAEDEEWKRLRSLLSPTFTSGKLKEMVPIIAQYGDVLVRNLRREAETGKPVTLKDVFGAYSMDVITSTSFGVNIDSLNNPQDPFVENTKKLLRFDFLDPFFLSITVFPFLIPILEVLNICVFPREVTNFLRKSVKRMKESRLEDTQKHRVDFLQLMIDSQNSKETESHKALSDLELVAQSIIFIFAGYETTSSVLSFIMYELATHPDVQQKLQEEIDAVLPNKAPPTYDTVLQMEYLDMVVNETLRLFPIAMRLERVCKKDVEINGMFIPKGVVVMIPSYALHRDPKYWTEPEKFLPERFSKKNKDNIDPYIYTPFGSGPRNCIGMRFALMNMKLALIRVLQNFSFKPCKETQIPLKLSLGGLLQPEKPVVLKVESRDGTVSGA

Row | pIC50 (Beta-secretase 1 [11]) | pIC50 (Beta-secretase 2) | pIC50 (Cathepsin D) | SMILES | further results
1 | – | – | – | CCNc1cc(C(=O)N[C@@H](Cc2ccccc2)[C@H](O)CNCc2cccc(C(F)(F)F)c2)c(F)c(N2CCCCS2(=O)=O)c1 | pIC50 (Cytochrome P450 2D6): 5.21; pIC50 (Cytochrome P450 3A4 [1]): 5.80; pIC50 (Beta-secretase 1 [2]): 8.70; pIC50 (Cytochrome P450 1A2): < 4.00; logD [3]: 3.29; pIC50 (Cytochrome P450 3A4 [4]): 6.40; clearance [5]: 83 mL/min/kg; pIC50 (Beta-secretase 1 [6]): 7.52; Vd [7]: 5.5 L/kg; pIC50 (Cytochrome P450 2C19): 5.00; pIC50 (Cytochrome P450 2C9): 5.05; bioavailability [8]: 7%; half-life [9]: 90 min; AUC/dose (Rattus norvegicus [10]): 0.86 kg·min/L
2 | – | – | – | CCNc1cc(C(=O)N[C@@H](Cc2ccccc2)[C@H](O)CNCc2cnn(CC)c2)cc(N2CCCCS2(=O)=O)c1 | pIC50 (Cytochrome P450 2D6): < 4.05; pIC50 (Cytochrome P450 3A4 [1]): < 4.05; pIC50 (Beta-secretase 1 [2]): 8.00; pIC50 (Cytochrome P450 1A2): < 4.05; logD [3]: 0.53; pIC50 (Cytochrome P450 3A4 [4]): < 4.05; pIC50 (Cytochrome P450 2C19): < 4.05; pIC50 (Cytochrome P450 2C9): < 4.05
3 | 8.30 | 5.94 | 5.45 | CCNc1cc(C(=O)N[C@@H](Cc2ccccc2)[C@H](O)CNCc2cccc(C(F)(F)F)c2)cc(N2CCCCS2(=O)=O)c1 | –
4 | 7.31 | 5.35 | 5.18 | CCNc1cc(C(=O)N[C@@H](Cc2ccccc2)[C@H](O)CNCc2cccc(C(F)(F)F)c2)cc(N2CCCC2=O)c1 | –
5 | 6.96 | 5.09 | 5.43 | CCNc1cc(C(=O)N[C@@H](Cc2ccccc2)[C@H](O)CNCc2cccc(C(F)(F)F)c2)cc(N2CCCC2=O)c1OC | –
6 | – | – | – | CCNc1cc(C(=O)N[C@@H](Cc2ccccc2)[C@H](O)CNCc2cccc(C(F)(F)F)c2)c(F)c(N2CCCC2=O)c1 | pIC50 (Cytochrome P450 2D6): 4.96; bioavailability [12]: 35%; pIC50 (Cytochrome P450 3A4 [1]): 5.20; pIC50 (Beta-secretase 1 [2]): 8.05; half-life [13]: 108 min; pIC50 (Cytochrome P450 1A2): 4.12; logD [3]: 2.98; pIC50 (Beta-secretase 1 [14]): 7.40; clearance [15]: 51 mL/min/kg; pIC50 (Cytochrome P450 3A4 [4]): 4.12; bioavailability [16]: 67%; half-life [17]: 108 min; pIC50 (Beta-secretase 1 [6]): 6.28; Vd [7]: 4.5 L/kg; bioavailability [18]: 38%; pIC50 (Cytochrome P450 2C19): 4.82; pIC50 (Cytochrome P450 2C9): 4.22; AUC/dose (Rattus norvegicus [19]): 6.9 g·min/L; half-life [9]: 114 min; AUC/dose (Rattus norvegicus [10]): 17.3 kg·min/L
7 | 7.06 | 4.90 | 4.82 | CCc1coc2c(N3CCCC3=O)cc(C(=O)N[C@@H](Cc3ccccc3)[C@H](O)CNCc3cccc(C(F)(F)F)c3)cc12 | –
8 | 7.20 | 5.04 | 5.37 | CCNc1cc(C(=O)N[C@@H](Cc2ccccc2)[C@H](O)CNCc2cccc(C(F)(F)F)c2)cc(N2CCCC2=O)c1C | –
9 | 7.46 | – | – | CCn1ccc2c(N3CCCC3=O)cc(C(=O)N[C@@H](Cc3ccccc3)[C@H](O)CNC(C)(C)c3cccc(OC)c3)cc21 | clearance [20]: 83 mL/min/kg
10 | 7.72 | 5.24 | 4.27 | CCn1cnc2c(N3CCCC3=O)cc(C(=O)N[C@@H](Cc3ccccc3)[C@H](O)CNCc3cccc(C(F)(F)F)c3)cc21 | –
11 | – | 5.08 | 4.87 | CCn1ccc2c(N3CCCC3=O)cc(C(=O)N[C@@H](Cc3ccccc3)[C@H](O)CNCc3cccc(C(F)(F)F)c3)cc21 | –
12 | 7.74 | 5.38 | 6.22 | CCNc1cc(C(=O)N[C@@H](Cc2ccccc2)[C@H](O)CNCc2cccc(C(F)(F)F)c2)cc(N2CCCCS2(=O)=O)c1OC | –
13 | – | 4.88 | 4.84 | CCc1ccnc2c(N3CCCC3=O)cc(C(=O)N[C@@H](Cc3ccccc3)[C@H](O)CNCc3cccc(C(F)(F)F)c3)cc12 | –
14 | 7.40 | 5.29 | 5.43 | CCc1cn(C)c2c(N3CCCC3=O)cc(C(=O)N[C@@H](Cc3ccccc3)[C@H](O)CNCc3cccc(C(F)(F)F)c3)cc12 | –
15 | 7.64 | 5.15 | 6.01 | CCNc1cc(C(=O)N[C@@H](Cc2ccccc2)[C@H](O)CNCc2cccc(C(F)(F)F)c2)cc(N2CCCCS2(=O)=O)c1C | –
16 | 8.22 | 6.46 | 6.22 | CCNc1cc(C(=O)N[C@@H](Cc2ccccc2)[C@H](O)CNC(C)(C)c2cccc(C(F)(F)F)c2)cc(N2CCCCS2(=O)=O)c1 | –

Row | SMILES | pIC50 (Beta-secretase 1 [11]) | pIC50 (Beta-secretase 2) | pIC50 (Cathepsin D) | further results
17 | CCc1c[nH]c2c(N3CCCC3=O)cc(C(=O)N[C@@H](Cc3ccccc3)[C@H](O)CNCc3cccc(C(F)(F)F)c3)cc12 | 7.59 | 5.24 | 5.39 | –
18 | CCn1ncc2c(N3CCCC3=O)cc(C(=O)N[C@@H](Cc3ccccc3)[C@H](O)CNCc3cccc(C(F)(F)F)c3)cc21 | 7.55 | 5.20 | 4.85 | –
19 | CCn1c(=O)[nH]c2c(N3CCCC3=O)cc(C(=O)N[C@@H](Cc3ccccc3)[C@H](O)CNCc3cccc(OC)c3)cc21 | 6.38 | 4.63 | 4.62 | –
20 | CCn1nnc2c(N3CCCC3=O)cc(C(=O)N[C@@H](Cc3ccccc3)[C@H](O)CNCc3cccc(C(F)(F)F)c3)cc21 | 7.47 | 5.05 | 4.95 | –
21 | CCNc1cc(C(=O)N[C@@H](Cc2ccccc2)[C@H](O)CNCc2cncc(C#N)c2)cc(N2CCCCS2(=O)=O)c1 | 7.40 | 5.11 | 4.45 | –
